ChEMBL document CHEMBL5647690, “Inhibition of demethylases by GSK-J1/J4” (Nature, 2014)

How the values were obtained:
[1] = target: T1, Lysine-specific demethylase 4C (Homo sapiens, UniProt Q9H3R0); test: Inhibition of KDM4C (1 to 349 residues)(unknown origin) by Alphalisa assay
T1 sequence (Q9H3R0 whole entry): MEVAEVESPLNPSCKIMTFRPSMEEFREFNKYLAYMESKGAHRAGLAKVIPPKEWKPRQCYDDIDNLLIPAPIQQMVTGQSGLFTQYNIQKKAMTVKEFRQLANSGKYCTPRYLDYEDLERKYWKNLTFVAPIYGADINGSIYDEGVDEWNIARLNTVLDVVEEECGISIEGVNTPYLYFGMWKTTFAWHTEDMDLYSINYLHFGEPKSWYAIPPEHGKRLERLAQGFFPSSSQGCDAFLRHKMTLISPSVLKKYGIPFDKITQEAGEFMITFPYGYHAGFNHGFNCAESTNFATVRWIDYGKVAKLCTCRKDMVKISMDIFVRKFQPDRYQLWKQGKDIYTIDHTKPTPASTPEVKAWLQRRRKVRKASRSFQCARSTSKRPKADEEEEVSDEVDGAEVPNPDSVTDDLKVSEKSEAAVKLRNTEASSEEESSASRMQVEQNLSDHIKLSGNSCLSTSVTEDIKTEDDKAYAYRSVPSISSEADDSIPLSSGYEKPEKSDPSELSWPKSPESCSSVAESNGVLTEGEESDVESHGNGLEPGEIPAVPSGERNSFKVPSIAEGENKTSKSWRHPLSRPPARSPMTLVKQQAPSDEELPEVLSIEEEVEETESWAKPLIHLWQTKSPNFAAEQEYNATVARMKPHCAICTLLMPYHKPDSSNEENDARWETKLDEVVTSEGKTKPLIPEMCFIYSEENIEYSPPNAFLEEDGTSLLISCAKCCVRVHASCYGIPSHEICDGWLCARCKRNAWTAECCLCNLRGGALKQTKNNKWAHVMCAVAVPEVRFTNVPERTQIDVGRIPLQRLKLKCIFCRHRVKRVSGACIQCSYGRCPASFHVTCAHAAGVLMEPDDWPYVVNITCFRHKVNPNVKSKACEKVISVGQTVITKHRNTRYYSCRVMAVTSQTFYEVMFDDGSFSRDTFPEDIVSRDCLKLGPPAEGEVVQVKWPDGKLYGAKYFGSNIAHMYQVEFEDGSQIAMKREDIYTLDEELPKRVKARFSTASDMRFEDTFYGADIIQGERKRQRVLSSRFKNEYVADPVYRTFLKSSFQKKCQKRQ

[2] = target: Lysine-specific demethylase 5C (Homo sapiens, UniProt P41229); test: Inhibition of KDM5C (2 to 1560 residues)(unknown origin) by Alphalisa assay
[3] = target: T2, Lysine-specific demethylase 4B (Homo sapiens, UniProt O94953); test: Inhibition of KDM4B (2 to 500 residues)(unknown origin) by Alphalisa assay
T2 sequence (O94953 whole entry): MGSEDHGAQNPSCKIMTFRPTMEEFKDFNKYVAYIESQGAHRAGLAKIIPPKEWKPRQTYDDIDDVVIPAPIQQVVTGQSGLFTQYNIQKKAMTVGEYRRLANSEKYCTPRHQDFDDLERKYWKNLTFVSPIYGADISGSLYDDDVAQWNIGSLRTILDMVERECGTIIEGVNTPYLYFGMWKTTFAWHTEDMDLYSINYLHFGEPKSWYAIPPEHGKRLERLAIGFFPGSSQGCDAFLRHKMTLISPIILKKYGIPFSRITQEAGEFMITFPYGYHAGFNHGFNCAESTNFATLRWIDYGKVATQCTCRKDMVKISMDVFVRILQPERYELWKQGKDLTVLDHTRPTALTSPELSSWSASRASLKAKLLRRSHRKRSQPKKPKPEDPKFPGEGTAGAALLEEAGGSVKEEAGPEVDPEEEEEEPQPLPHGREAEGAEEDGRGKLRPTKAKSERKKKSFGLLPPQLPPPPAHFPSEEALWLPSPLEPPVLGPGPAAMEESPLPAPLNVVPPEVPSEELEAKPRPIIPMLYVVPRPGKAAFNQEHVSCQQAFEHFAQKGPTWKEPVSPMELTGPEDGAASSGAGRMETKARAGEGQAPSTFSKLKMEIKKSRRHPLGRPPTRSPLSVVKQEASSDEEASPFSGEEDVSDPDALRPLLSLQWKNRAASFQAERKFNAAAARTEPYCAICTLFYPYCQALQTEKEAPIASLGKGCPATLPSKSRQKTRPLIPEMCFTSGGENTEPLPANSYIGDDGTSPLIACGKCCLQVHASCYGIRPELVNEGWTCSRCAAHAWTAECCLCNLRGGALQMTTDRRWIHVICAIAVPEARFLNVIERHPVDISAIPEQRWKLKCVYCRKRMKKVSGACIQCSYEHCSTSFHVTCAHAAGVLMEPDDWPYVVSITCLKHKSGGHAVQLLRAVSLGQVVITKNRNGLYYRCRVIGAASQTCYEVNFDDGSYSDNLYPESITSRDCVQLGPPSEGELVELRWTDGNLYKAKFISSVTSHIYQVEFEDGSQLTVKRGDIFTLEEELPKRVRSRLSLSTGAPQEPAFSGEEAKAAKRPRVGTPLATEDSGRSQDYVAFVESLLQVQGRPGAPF

[4] = target: Lysine-specific demethylase 6A (Homo sapiens, UniProt O15550); test: Inhibition of KDM6A (919 to 1401 residues)(unknown origin) by Alphalisa assay
Sequence of Lysine-specific demethylase 6A (O15550 whole entry, the tested form may be a part): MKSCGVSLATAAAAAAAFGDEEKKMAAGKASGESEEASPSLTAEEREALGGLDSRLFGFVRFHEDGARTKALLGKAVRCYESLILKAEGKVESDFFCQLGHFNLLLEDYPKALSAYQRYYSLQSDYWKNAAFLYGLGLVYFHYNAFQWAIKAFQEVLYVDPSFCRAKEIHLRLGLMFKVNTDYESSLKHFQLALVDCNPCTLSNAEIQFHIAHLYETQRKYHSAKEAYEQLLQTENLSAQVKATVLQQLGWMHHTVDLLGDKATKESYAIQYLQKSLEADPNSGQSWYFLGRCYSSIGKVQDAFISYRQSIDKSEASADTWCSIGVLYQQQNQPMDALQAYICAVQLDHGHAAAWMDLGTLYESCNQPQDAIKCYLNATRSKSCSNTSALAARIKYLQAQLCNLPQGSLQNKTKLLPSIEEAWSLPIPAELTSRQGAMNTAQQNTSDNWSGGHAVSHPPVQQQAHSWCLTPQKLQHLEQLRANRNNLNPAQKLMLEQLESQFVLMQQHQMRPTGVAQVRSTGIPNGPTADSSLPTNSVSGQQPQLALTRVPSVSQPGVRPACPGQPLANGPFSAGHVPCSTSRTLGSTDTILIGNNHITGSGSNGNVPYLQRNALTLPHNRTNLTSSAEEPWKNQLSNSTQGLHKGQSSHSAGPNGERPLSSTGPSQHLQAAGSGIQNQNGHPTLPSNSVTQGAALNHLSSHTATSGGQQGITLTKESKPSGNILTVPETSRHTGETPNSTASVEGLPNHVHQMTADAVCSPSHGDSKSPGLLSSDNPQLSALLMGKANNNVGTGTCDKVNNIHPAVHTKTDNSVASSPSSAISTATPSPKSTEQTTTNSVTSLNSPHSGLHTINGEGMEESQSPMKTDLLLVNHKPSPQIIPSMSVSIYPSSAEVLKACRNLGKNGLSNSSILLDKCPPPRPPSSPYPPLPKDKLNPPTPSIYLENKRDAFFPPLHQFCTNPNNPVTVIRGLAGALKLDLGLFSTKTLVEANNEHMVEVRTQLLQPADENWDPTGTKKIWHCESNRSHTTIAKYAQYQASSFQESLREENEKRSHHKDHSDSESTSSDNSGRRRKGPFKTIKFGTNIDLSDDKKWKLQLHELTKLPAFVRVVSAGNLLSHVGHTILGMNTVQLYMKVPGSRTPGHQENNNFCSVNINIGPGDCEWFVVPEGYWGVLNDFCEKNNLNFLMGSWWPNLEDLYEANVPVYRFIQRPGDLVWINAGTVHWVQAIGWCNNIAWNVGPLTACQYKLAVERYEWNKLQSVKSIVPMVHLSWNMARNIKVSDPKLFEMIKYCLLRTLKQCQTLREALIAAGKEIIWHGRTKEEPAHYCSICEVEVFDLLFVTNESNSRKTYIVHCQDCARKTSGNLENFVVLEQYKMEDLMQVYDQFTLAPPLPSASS

Sequence of Lysine-specific demethylase 5C (P41229 whole entry, the tested form may be a part): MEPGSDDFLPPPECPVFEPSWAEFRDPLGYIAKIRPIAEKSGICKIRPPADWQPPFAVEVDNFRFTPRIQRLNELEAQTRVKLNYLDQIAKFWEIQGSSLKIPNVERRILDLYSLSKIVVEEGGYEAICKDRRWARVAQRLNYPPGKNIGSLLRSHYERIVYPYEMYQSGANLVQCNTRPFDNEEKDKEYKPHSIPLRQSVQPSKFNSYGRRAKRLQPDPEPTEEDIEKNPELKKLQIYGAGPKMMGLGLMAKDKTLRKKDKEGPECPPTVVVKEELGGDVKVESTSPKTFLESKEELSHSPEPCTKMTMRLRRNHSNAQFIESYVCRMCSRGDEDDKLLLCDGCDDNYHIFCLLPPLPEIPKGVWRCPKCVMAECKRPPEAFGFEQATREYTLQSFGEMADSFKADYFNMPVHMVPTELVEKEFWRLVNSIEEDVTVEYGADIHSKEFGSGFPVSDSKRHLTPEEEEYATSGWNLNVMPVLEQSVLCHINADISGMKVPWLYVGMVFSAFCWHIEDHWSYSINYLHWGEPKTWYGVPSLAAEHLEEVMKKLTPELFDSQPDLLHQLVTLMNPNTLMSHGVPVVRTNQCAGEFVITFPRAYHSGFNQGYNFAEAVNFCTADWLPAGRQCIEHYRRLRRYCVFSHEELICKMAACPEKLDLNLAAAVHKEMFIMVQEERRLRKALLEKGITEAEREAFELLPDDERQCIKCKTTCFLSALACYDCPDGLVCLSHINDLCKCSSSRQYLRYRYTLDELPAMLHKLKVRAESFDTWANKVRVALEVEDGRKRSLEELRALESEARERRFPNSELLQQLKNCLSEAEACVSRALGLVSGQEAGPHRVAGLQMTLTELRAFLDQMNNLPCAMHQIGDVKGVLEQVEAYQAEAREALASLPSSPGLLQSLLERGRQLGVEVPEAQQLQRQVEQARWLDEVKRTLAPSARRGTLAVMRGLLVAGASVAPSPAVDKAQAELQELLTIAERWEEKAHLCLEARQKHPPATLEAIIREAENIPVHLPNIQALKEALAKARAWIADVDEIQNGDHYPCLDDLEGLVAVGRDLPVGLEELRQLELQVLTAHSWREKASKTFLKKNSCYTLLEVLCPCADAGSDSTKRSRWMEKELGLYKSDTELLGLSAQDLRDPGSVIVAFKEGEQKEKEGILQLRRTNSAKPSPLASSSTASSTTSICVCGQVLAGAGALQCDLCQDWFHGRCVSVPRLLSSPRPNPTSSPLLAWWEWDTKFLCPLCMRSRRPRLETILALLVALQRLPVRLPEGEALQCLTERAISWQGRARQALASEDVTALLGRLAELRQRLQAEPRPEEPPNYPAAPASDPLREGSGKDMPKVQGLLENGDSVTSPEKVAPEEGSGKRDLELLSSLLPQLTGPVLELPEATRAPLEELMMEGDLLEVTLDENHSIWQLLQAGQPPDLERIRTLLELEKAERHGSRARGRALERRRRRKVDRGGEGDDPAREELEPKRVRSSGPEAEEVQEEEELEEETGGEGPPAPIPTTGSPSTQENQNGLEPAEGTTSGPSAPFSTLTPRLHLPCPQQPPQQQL

## CCOC(=O)CCNc1cc(N2CCc3ccccc3CC2)nc(-c2ccccn2)n1
[1]
  IC50: 5.5 µM
[2]
  IC50: 15 µM
[3]
  IC50: 3.8 µM
[4]
  IC50: 6.6 µM

## O=C(O)CCNc1cc(N2CCc3ccccc3CC2)nc(-c2ccccn2)n1
[1]
  IC50: 34 µM
[2]
  IC50: 0.55 µM
[3]
  IC50: 73 µM
[4]
  IC50: 0.053 µM
